According to patent US8546091B2, “AKT phosphorylation at Ser473 as an indicator for taxane-based chemotherapy” (The United States of America, as represented by the …, priority 2009, dated 2013):
Read-outs that look alike come from different tables or passages of the source.

What was measured:
[1] = test system: node-positive breast cancer; details: NSABP B-28, Mamounas et al. 2005; paclitaxel after AC vs AC alone; cited from earlier work
[2] = test system: node-positive breast cancer; assay type: in vivo, human
Text: We designed and conducted a study to correlate Akt phosphorylation with clinical outcome through the primary tumor specimens from the National Surgical Adjuvant Breast and Bowel Project B-28 trial. We tested the hypothesis that phosphorylation of Akt at serine 473 (“pAkt”) predicts a benefit for women with node-positive breast cancer from the sequential addition of paclitaxel after adjuvant doxorubicin plus cyclophosphamide chemotherapy.
Eligible patients signed an approved informed consent which includes tissue collection and research use of collected tissue conforming to federal and institutional guidelines. In this study, the biomarker protocol for the evaluation of Akt phosphorylation in association with disease-free survival and overall survival in patients with node-positive breast cancer treated with either adjuvant doxorubicin plus cyclophosphamide only or followed by paclitaxel was approved by the Institutional Review Boards of the National Cancer institute (Bethesda, Md.) and the National Surgical Adjuvant Breast and Bowel Project (Pittsburgh, Pa.).
HER2 status on the microarray sections were determined by the NSABP central pathology laboratory using PathVision fluorescent in situ hybridization (FISH) assay according to the FDA approved protocol per the manufacturer (Vysis, Downers Grove. Ill.). Data were expressed as the number of HER2 genes per chromosome 17 centromere: tumors with a ratio of […] were classified as HER2-positive, and those with a ratio of <2 were defined as HER2-negative. Estrogen receptor status in tissue microarray sections were also determined by the NSABP central pathology laboratory by immunohistochemistry according to the FDA approved protocol provided by DAKO (PharmDx kit; Carpinteria, Calif.). A positive result (tumor cell nuclear staining) for ER is defined as a total score (ranging from 0, 2-8) of ≧3. The total score is the sum of a proportion score from 0 to 5 and an intensity score of 0 to 3.
Sections were incubated with primary antibody in 1 to 100 dilution for 1 hour at room temperature, and binding of the antibody to its antigenic sites was amplified using Vectastain Elite avidin-biotin peroxidase complex kits (Vector Laboratories, Burlingame, Calif.). The antigen-antibody reaction sites were visualized using 3,3-diaminobenzidine for 7 minutes and, subsequently, sections were counterstained with Mayer's hematoxylin. Breast cancer cell line MDA-MB-468 which expresses pAkt, and a breast cancer specimen known to express pAkt were utilized as positive controls. Negative control was performed using isotype immunoglobulins appropriate to the primary antibodies being used (Zymed Laboratories, South San Francisco, Calif.). The immunostained tissue microarray cores with either cytoplasmic or membranous or nuclear signal were analyzed with the assistance of an Automated Cellular Imaging System (DAKO), blinded to all clinical information, after excluding tissue cores with less than 5% of invasive tumor cells present. The staining intensity and percentage of tumor cells on each tissue core was calculated by the digital imaging system. The staining index ranging from 0 to 62.8 reporting levels of Akt phosphorylation at Ser473 was determined by the percentage multiplied by intensity of staining divided by 100 (intensity X percentage/100) in tumor cells, in which the intensity was subtracted from the average tissue readout of three normal tissue cores. These cores serve as the position markers and tissue negative controls for each array slide.

[3] = test system: Akt phosphorylation at serine 473; details: literature (MacKeigan 2002; Asakuma 2003); cited from earlier work
cancer cells = details: literature (MacKeigan 2002; Asakuma 2003); cited from earlier work

For `CC(=O)O[C@H]1C(=O)[C@@]2(C)[C@H]([C@H](OC(=O)c3ccccc3)[C@]3(O)C[C@H](OC(=O)[C@H](O)[C@@H](NC(=O)c4ccccc4)c4ccccc4)C(C)=C1C3(C)C)[C@]1(OC(C)=O)CO[C@@H]1C[C@@H]2O` [paclitaxel], the “effect on disease-free and overall survival” value [1] is listed as “significantly improve disease-free survival but not overall survival”, the “hazard ratio for disease-free survival” value ([2]; 606 patients with pAkt positive cancer, with vs without paclitaxel, FIG. 1B, P=0.027) is listed as 0.75 and the “hazard ratio for disease-free survival” value ([2]; 975 patients with pAkt-negative cancer, with vs without paclitaxel, FIG. 1A, P=0.44) is listed as 1.08. The “hazard ratio for overall survival” value ([2]; 1581 patients with pAkt measurement, follow-up 9.1 years, 95% CI 0.79-1.15, P=0.63) was 0.96, the “hazard ratio for disease-free survival” value ([2]; 1581 patients with pAkt measurement, follow-up 9.1 years, 95% CI 0.81-1.10, P=0.46) was 0.94 and the “improvement in disease-free survival” value ([2]; entire B-28 population with pAkt-Ser473 measurements, positive or negative, approximate 10 years of follow-up) was 6%. For the same compound, the “hazard ratio for overall survival” value ([2]; entire B-28 population, approximate 10 years of follow-up, addition of paclitaxel to AC vs AC, 95% CI 0.81-1.06, P=0.25) was 0.92, the “hazard ratio for disease-free survival” value ([2]; entire B-28 population, approximate 10 years of follow-up, sequential addition of paclitaxel to AC vs AC, 95% CI 0.79 to 0.99, P=0.034) was 0.89 and the “adjusted hazard ratio for disease-free survival” value ([2]; pAkt negative cancer, multivariate proportional-hazards model, FIG. 1C, P=0.81) was 1.02. For the same compound, the “adjusted hazard ratio for disease-free survival” value ([2]; pAkt positive breast cancer, multivariate proportional-hazards model, FIG. 1C, P=0.02) was 0.74, the “hazard ratio for overall survival” value ([2]; pAkt-negative cancer, P=0.74) was 1.04 and the “adjusted hazard ratio for disease-free survival” value ([2]; pAkt-negative, HER2-negative tumors, FIG. 3C, P=0.36) was 1.12. The “adjusted hazard ratio for disease-free survival” value ([2]; pAkt-negative, HER2-positive tumors, FIG. 3A, P=0.88) was 0.96, the “adjusted hazard ratio for disease-free survival” value ([2]; pAkt-negative, estrogen-receptor positive tumors, FIG. 2A, P=0.64) was 1.06 and the “adjusted hazard ratio for disease-free survival” value ([2]; pAkt-negative, estrogen-receptor-negative tumors, FIG. 2C, P=0.79) was 1.04. The “improvement in disease-free survival” value ([2]; pAkt-positive breast cancer, sequential addition of paclitaxel) was 26%, the “hazard ratio for overall survival” value ([2]; pAkt-positive cancer, P=0.226) was 0.83 and the “adjusted hazard ratio for disease-free survival” value ([2]; pAkt-positive, HER2-negative tumors, FIG. 3D, P=0.03) was 0.70. The “adjusted hazard ratio for disease-free survival” value ([2]; pAkt-positive, HER2-positive tumors, FIG. 3B, P=0.28) was 0.72, the “adjusted hazard ratio for disease-free survival” value ([2]; pAkt-positive, estrogen receptor-negative tumors, FIG. 2D, P=0.052) was 0.66 and the “adjusted hazard ratio for disease-free survival” value ([2]; pAkt-positive, estrogen receptor-positive tumors, FIG. 2B, P=0.24) was 0.82. For the same compound, the “effect on Akt phosphorylation at serine 473” value [3] was “inhibits Akt phosphorylation at serine 473” and the “effect on survival of cancer cells” value (cancer cells) was “reduces the survival cancer cells”.
